Series [1] has as its system isolated mouse brain microvessels. Kind of series: 125I-insulin surface binding and internalization in isolated brain microvessels with endocytosis inhibitors. The class given is cell-based. The settings on record: relative to vehicle; for amount of 125I-insulin internalized, difference vs vehicle (increase): inhibitor 15 min 37°C (monensin 10 μM, p = 0.079 not significant; CPZ 2.8 mM in 20% MeOH, p = 0.018), then 125I-insulin 15 min 37°C, cytoplasmic + membrane fraction; for microvessel surface binding of 125I-insulin, difference vs vehicle (increase): ~90 μg protein, inhibitor 15 min 37°C (monensin 10 μM; CPZ 2.8 mM in 20% MeOH), then 125I-insulin 400,000 CPM 15 min 37°C, acid-wash reversible binding, gamma counter, 2-3 biological replicates. The method, then:
Whole brains were pooled and homogenized in chilled isolation buffer (DMEM, 25 mM HEPES, pH 7.4, 1% (w/v) dextran and 0.5% BSA) with a Dounce homogenizer. A range of 8–20 brains were pooled each experimental day. The homogenate was poured once through a 300 μm mesh, then twice through a 100 μm mesh. The filtrate was combined with an equivalent volume of chilled 40% dextran in isolation buffer and centrifuged at 3000 g for 30 min at 4°C. The pellet was resuspended in 1 ml of isolation buffer and pipetted twice through a 20 μm pluriStrainer® mesh (pluriSelect Life Science, Leipzig, Germany), before a final rinse with isolation buffer. […] The pellet was resuspended in 1 ml of PBS and spun at 500 g for 3 min at 4°C three times.
Briefly, the suspended pellet was evenly split between treatment groups, with two technical replicates per group. On average, each binding assay involved approximately 90 μg protein from the isolated microvessels in 40–45 μL. Each study was repeated with separate isolated microvessels for 2-3 biological replicates per study. Microvessels were treated with vehicle or an endocytosis inhibitor. Inhibitors were made up in incubation buffer and/or MeOH. Final concentrations for inhibitors include: monensin (10 μM), CPZ (2.8 mM in 20% MeOH), and filipin III (2 μg/ml in 0.2% MeOH) with respective vehicle MeOH controls. […] Samples were centrifuged at 10,000 g for 2 min at 4°C, and the supernatants were collected. The pellets were resuspended in incubation buffer, centrifuged at 4,225 g for 2 min at 4°C, and the supernatants were combined with the previous ones. The radioactivity in the pellets and combined supernatants were measured in a gamma counter (Wizard^2, PerkinElmer). In order to determine the amount of substrate bound to the cell surface, the pellet was resuspended in 400 μL of chilled acid wash buffer (0.2 M glycine, 0.15 M NaCl) to strip the surface of reversibly bound substrates on ice for 6 min, centrifuged at 4,225 g for 2 min at 4°C. The supernatant was collected and measured in a gamma counter as before to determine the amount of reversible binding (RB) at the plasma membrane, which we have called surface binding. To determine the amount of substrate internalized, the pellet was resuspended in 400 μL of chilled 1% BSA in deionized water and incubated for 1 h on ice to lyse the cells. The sample was centrifuged as before, the supernatant was collected, and the pellet was suspended again in 1% BSA and incubated on ice for 30 min. The sample was centrifuged, the supernatant was combined with the previous one, and both supernatant and pellet were measured in a gamma counter. […]
Percentages were calculated by dividing the measurement of interest (surface binding or internalization) by the total counts present in the sample and multiplying by 100. […]

Series [2] deals with blood-brain barrier. Kind of series: In situ brain perfusion: 125I-insulin BBB transport (Ki) and vascular binding (Vi) after inhibitor pre-perfusion. The class given is in vivo, mouse. The settings on record: for effect on 125I-insulin transport (Ki) or vascular binding (Vi) (in words): whole brain or olfactory bulb. The method, then: Following anesthesia, the thoracic cavity was opened and the descending thoracic aorta was clamped and jugular veins were cut to allow blood to drain from the brain vascular space. A 26-gauge butterfly needle was inserted into the left ventricle of the heart and mice were pre-perfused with vehicle or inhibitor at a rate of 2 ml/min. Mice were perfused with vehicle (1% MeOH in Zlokovic buffer: 7.19 g/L NaCl, 0.3 g/L KCl, 0.28 g/L CaCl2, 2.1 g/L NaHCO3, 0.16 g/L KH2PO4, 0.17 g/L anhydrous MgCl2, 0.99 g/L D-glucose and 1% BSA) ± 5 μM monensin or 2 μg/ml filipin III. […] Mice were perfused for timepoints ranging from 0.5 to 5 min. Whole brains, olfactory bulbs, and the hypothalamus were collected, weighed, and measured for radioactivity in a gamma counter. Brain/perfusate ratios (μL/g) were calculated by dividing the cpm per Gram of tissue by the cpm per μL of perfusate and plotted against perfusion time.
Regression analysis and other statistical analyses were performed using Prism 8.0 (GraphPad Software Inc., San Diego, CA, United States). For microvessel binding assays, the means are reported with their standard error terms and compared by a Student’s t test was. p values less than 0.05 were considered statistically significant. For in situ brain perfusion studies, linear regressions were performed on the brain/serum or brain/perfusate ratios using GraphPad Prism software. Linear regression lines were compared statistically with the Prism 8.0 software package. They are reported with their correlation coefficients (r) and linear regression p values.

The test system of series [3] is blood-brain barrier. The class given is in vivo, mouse. To be noted: 50 μM monensin IV pre-treatment 30 min vs vehicle. The method, then: The reaction started with the addition of 10 μg chloramine-T in 0.25 M PB and terminated 1 min later with addition of 100 μg sodium metabisulfite. ^131I-albumin was labeled was labeled the same way except used 2 mCi ^131I (Perkin-Elmer, Waltham, MA, United States). ^131I-albumin was used as a vascular marker for the ^125I-transferrin multiple-time regression analysis transport studies as previously described ([Rhea et al., 2018]). A Sephadex G-10 column (Sigma-Aldrich) was used to separate labeled peptides and proteins from free iodine. Protein labeling was characterized by 15% trichloroacetic acid (TCA) precipitation. The radioactively labeled substrates we injected were quality-controlled materials, negating the overestimation of free ^125I.
FIGURE 3 Role of clathrin in transferrin hypothalamic BBB transport.

For series [4], the target named is T1, insulin receptor (Mus musculus, UniProt P15208).
T1 construct: from tissue; host or cells: living mouse; brain vasculature (olfactory bulb and 10 dissected brain regions)
Description: In vivo regional 125I-S961 binding at the BBB after IV monensin pre-treatment. The settings on record: 30 min IV pre-treatment, 100 μL of 50 μM monensin in 10% MeOH in 0.1% BSA/LR; 125I-S961 circulated 5 min; olfactory bulb and 10 brain regions; two-way ANOVA treatment p = 0.0008, no post hoc differences; n = 6/group. The method, then: In anesthetized mice, the jugular vein was exposed and a 100 μL IV injection containing vehicle (10% MeOH in 0.1% BSA/LR) or monensin (50 μM in 10% MeOH in 0.1% BSA/LR) was administered. Thirty min later, a second 100 μL IV injection containing 1 × 10^6 ^125I-[…] was administered and circulated for 5 min. Blood was collected from the descending aorta, the olfactory bulbs and whole brains removed, and whole brains dissected into 10 brain regions according to the method by [Glowinski and Iversen, (1966)]. The amount of radioactivity in each region was counted in a gamma counter (Wizard^2, PerkinElmer) and corrected for the % injected ^125I-[…] (based on injection checks) and divided by the weight of the tissue (g) to get %Inj/g levels.

The mark [5] stands for this setting: hypothalamus, 2 μg/ml filipin pre-perfusion 10 min.
Setting [6] is: olfactory bulb, 2 μg/ml filipin pre-perfusion 10 min.
[7] abbreviates: whole brain, 2 μg/ml filipin pre-perfusion 10 min.

Structures are written as SMILES.

T1 sequence (P15208 28-748 limits assumed): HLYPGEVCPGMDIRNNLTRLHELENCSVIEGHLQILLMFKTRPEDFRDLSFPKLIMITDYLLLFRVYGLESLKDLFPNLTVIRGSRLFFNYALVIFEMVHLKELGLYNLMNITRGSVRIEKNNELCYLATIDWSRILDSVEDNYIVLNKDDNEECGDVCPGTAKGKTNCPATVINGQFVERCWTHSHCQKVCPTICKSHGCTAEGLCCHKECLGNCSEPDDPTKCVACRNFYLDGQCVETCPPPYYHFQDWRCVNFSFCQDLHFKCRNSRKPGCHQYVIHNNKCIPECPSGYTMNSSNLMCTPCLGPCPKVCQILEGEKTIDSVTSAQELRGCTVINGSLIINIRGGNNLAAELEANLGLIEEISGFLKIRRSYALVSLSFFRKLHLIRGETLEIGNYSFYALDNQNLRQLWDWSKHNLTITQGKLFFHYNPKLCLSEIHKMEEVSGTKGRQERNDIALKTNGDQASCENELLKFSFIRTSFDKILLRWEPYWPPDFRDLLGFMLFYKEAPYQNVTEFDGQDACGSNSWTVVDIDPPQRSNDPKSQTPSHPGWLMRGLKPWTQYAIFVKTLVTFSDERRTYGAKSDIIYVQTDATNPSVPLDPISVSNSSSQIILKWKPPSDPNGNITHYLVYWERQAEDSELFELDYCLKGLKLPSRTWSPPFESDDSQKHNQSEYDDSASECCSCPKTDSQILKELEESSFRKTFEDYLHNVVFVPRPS
T1 sequence (P15208 753-1372 partner limits assumed): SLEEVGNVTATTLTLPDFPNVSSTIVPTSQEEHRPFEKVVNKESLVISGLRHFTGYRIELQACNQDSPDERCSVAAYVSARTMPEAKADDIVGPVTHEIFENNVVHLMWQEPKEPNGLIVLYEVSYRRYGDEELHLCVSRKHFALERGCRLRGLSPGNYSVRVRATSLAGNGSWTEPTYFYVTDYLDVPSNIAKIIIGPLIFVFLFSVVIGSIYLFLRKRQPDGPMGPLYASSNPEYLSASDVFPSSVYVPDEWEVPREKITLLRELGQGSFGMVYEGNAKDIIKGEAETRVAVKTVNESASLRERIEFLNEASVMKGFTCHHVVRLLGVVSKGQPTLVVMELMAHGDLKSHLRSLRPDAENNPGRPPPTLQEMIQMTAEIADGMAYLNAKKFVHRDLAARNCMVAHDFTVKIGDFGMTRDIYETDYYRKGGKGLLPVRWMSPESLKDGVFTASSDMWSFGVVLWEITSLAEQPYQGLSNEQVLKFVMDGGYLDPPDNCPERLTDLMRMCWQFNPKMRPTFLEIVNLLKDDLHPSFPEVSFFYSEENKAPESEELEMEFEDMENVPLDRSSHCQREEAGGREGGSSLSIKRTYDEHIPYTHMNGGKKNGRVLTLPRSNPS

Take `CN(C)CCCN1c2ccccc2Sc2ccc(Cl)cc21` [CPZ, chlorpromazine]: in series [1], the “amount of 125I-insulin internalized, difference vs vehicle (increase)” value worked out at 76.9% and the “microvessel surface binding of 125I-insulin, difference vs vehicle (increase)” value is 42.2%.
`CCCCC[C@@H](O)[C@H]1C(=O)O[C@H](C)[C@@H](O)/C=C/C=C/C=C/C=C/C=C(\C)[C@@H](O)C[C@H](O)C[C@H](O)C[C@H](O)C[C@H](O)C[C@H](O)C[C@@H]1O` [Filipin, Filipin III]: the results for the “Vi of 125I-insulin” value in series [2] (setting [5]), in series [2] (setting [6]) and in series [2] (setting [7]) were 8.4 ± 2.3 µL/g, 2.8 ± 3.0 µL/g and 5.0 ± 1.5 µL/g, respectively. The “effect on 125I-insulin transport (Ki) (in words)” value in series [2] (setting [5]) is “does limit transport”. The “Ki of 125I-insulin” value amounted to 0.94 ± 0.66 µL/g/min in series [2] (hypothalamus, 2 μg/ml filipin pre-perfusion 10 min, ns, slope did not significantly differ from zero); 0.94 ± 0.43 µL/g/min in series [2] (hypothalamus, 2 μg/ml filipin pre-perfusion 10 min, ns, slope did not significantly differ from zero, listed as filipin); 3.06 ± 0.93 µL/g/min in series [2] (setting [6]); 0.94 ± 0.43 µL/g/min in series [2] (setting [7]). Further, the “effect on 125I-insulin transport (Ki) or vascular binding (Vi) (in words)” value in series [2] (2 μg/ml filipin pre-perfusion 10 min) is given as “no effect”.
Take `CC[C@@]1([C@@H]2O[C@@H]([C@H]3O[C@@](O)(CO)[C@H](C)C[C@@H]3C)C[C@@H]2C)CC[C@H]([C@]2(C)CC[C@]3(C[C@H](O)[C@@H](C)[C@@H]([C@@H](C)[C@@H](OC)[C@H](C)C(=O)O)O3)O2)O1` [Monensin]: the “decrease in hypothalamic BBB transport of 125I-transferrin” value in series [3] was found to be 80%. Further, the “125I-S961 binding (%Inj/g), effect of pre-treatment (in words)” value in series [4] is on record as “significantly increased”. Besides, the “effect on 125I-insulin transport (Ki) or vascular binding (Vi) (in words)” value in series [2] (5 μM monensin pre-treatment 10 min) was “no effect”. Besides, in series [1], the “amount of 125I-insulin internalized, difference vs vehicle (increase)” value was 33.7% and the “microvessel surface binding of 125I-insulin, difference vs vehicle (increase)” value turned out to be 36.3%.

(Values after publication PMC10629879 (Frontiers in drug delivery, 2022).)
